Values quoted from earlier work in patent publication US20160361293A1, “NANOSTRUCTURED COMPOSITION COMPRISING INDOMETHACINE, ITS PHARMACEUTICALLY ACCEPTABLE SALTS AND CO-CRYSTALS AND PROCESS FOR THE PREPARATION THEREOF” (DARHOLDING KFT., priority 2014, published 2016).
In brackets after ≈: the same amount, converted by molar mass.

Legend:
[1] = in vivo
[2] = not given; remark: listed apart in the source

mean half-life [1]: about 4.5 hours
stability in neutral or slightly acidic media (neutral or slightly acidic media): stable
stability in strong alkali (strong alkali): decomposes
solubility in alcohol ([2]; alcohol, in words): sparingly soluble
water solubility ([2]; water): 50 µg/mL (≈ 140 µM)
solubility in water ([2]; water, in words): practically insoluble
Compound: COc1ccc2c(c1)c(CC(=O)O)c(C)n2C(=O)c1ccc(Cl)cc1 [Indomethacin, 1-(4-chlorobenzoyl)-5-methoxy-2-methyl-1H-indole-3-acetic acid]
